In a melting point compilation (Tetko et al.; mined from patent text by program, amines drawn as free bases though some values may be those of a salt):

Structure (SMILES) | melting point [°C]
O=C(O)COCc1cc(Br)ccc1C(=O)O | 194 to 196
O=c1[nH]c2cscc2c(=O)n1CCN1CCN(c2ccccc2)CC1 | > 250
CC1Nc2cc(F)c(F)cc2-n2cccc21 (stereo not drawn) | 93 to 95
O=c1cc(-c2cccs2)oc2cccc(OCCOc3ccccc3)c12 | 173 to 174
NS(=O)(=O)c1cc(C(=O)O)cc([N+](=O)[O-])c1Nc1ccccc1 | 261 to 262
NCCNc1nc(N)nc(-c2cc(Cl)ccc2Cl)n1 | 152 to 153
O=C1CN(Cc2ccccn2)CC(=O)N1CCCN1CCN(c2ccc(F)cc2)CC1 | 90
CCN(CCNS(C)(=O)=O)c1ccc(NC(C)=O)c(C)c1 | 104 to 105
C[C@@H]1CCC[C@H](C)N1CCNC(=O)CN1CCCC1=O | 93 to 94.5
CCN1CC(=O)N(c2ccccc2C)C1=S | 82 to 84
Cc1cccc(-c2nc3cccnn3c2-c2ccnc(NC(=O)Nc3ccccc3)c2)c1 | 247 to 249
O=C(O)c1cn(C2CC2)c2cc(N3CCNC(COc4ccccc4)C3)c(F)cc2c1=O (stereo not drawn) | 112 to 115
CCCCCCCCCCCCCCCCCCNC(=O)O[C@@H]1CCCO[C@H]1COCc1ccccc1 (relative stereo) | 84 to 86
COc1cc2ncc(C#N)c(Nc3cc(C)ccc3O)c2cc1OC | 198 to 200
CCCCN(CCCC)CCNC(=O)c1cccc(NC(=O)N2CCc3cc(SC)c(C(F)(F)F)cc32)c1 | 128 to 130
CCCc1cc(C(=O)OC)ccc1OCCCCCOc1ccc2c(c1CCC)OC(C(=O)OC)CC2 (stereo not drawn) | 63 to 64
CCOC(=O)c1nc2ccccn2c1-c1ccccc1 | 106
N#CC1(CCCCCCCCCCCCC2(C#N)CC2)CC1 | 45 to 46.9
CC(C)n1nc(-c2sc(C(=O)NCCc3ccccn3)nc2-c2ccccc2)ccc1=O | 144 to 147
Cc1c(C)c2c(c3c1NCC3)CC(C)(CI)O2 (stereo not drawn) | 97 to 98
COC(=O)c1cn2c(n1)COc1cc(C)c(Cl)cc1-2 | 242 to 246
CC(=O)SC[C@H]1CCCCCC[C@H](C(=O)O)NC1=O (relative stereo) | 144 to 145
COc1ccc([C@H](Sc2ccccc2N)[C@@H](O)C(=O)Nc2ccccc2)cc1 | 215 to 217
CCCC(=O)c1cnc2c(C=O)cccc2c1Nc1ccccc1C | 142 to 144
CC(=O)NN=C(C(=O)NN)c1ccccc1 | 177

Structure (SMILES) | melting point [°C]
COC(=O)COc1coc2ccccc2c1=O | 114 to 116
COc1ccc2cc3c(c(-c4ccc(OC(F)(F)F)cc4)c2c1)CNC3=O | 277 to 280
Cc1ccc(C(=O)NC(Cc2ccc(C(F)(F)F)cc2)C(=O)c2ccc(F)cc2)c2ccccc12 (stereo not drawn) | 149 to 150
CN1CC=C(c2c[nH]c3ccc(NS(=O)(=O)c4cccc5ccccc45)cc23)CC1 | 244 to 245
Oc1ccc(-c2noc(C3(COc4c(F)cccc4OC(F)(F)F)CC3)c2-c2ccccc2)cc1 | 132 to 133
COc1cc2c(c(Cl)c1Cl)CCC2=O | 163 to 165
CN1C(=O)C(c2cccc(C#Cc3ccccc3)c2)(c2cc(C=O)n(CCCF)c2)N=C1N (stereo not drawn) | 85 to 90
CCN1CC(=O)N(c2ccccc2SC)C1=S | 128 to 131
CCn1ncc2cc3c(nc21)CCc1ccccc1C3(O)CCCN(C)C (stereo not drawn) | 100 to 102
CCOC12N=C(c3cccnc3)SC1Cc1cc(Cl)ccc12 (stereo not drawn) | 89 to 90
COc1cccc2c1CC(C(=O)NCCOc1ccc(C(=O)O)cc1)N2S(=O)(=O)c1ccc(-c2ccc(F)cc2Cl)cc1 (stereo not drawn) | 190 to 204
CC(C)(c1cc(F)cc([N+](=O)[O-])c1O)c1cc(F)cc([N+](=O)[O-])c1O | 138
Cc1nc(Sc2ccccn2)sc1CC(=O)O | 140 to 142
COc1ccc(N2CCN(c3c(C)c(C)c4c(c3C)C(O)(C(C)(C)C)C(C)(C)O4)CC2)cc1 (stereo not drawn) | 113 to 115
N#Cc1cn(-c2ccc([N+](=O)[O-])c(N)c2)cc1-c1ccccc1 | 193 to 194
O=[N+]([O-])c1ccc(Oc2cccc3c(Oc4ccc([N+](=O)[O-])c(O)c4)cccc23)cc1O | 238 to 241
COC(=O)C(CCS(N)(=O)=O)c1ccc([N+](=O)[O-])cc1F (stereo not drawn) | 99 to 101
O=C(O)C(Cc1ccccc1)Oc1c(Br)cc(-c2ccc(-c3c(Cc4ccccc4)sc4ccccc34)cc2)cc1Br (stereo not drawn) | 87 to 89
CC(C)(C)C(=O)Oc1ccc(C(=O)c2ccc(Cl)cc2)cc1 | 113 to 114
CCOC(=O)CSc1nc(Nc2ccc(OC)c(Cl)c2)cc(-c2ccccc2)n1 | 155
CC(C)S(=O)(=O)n1c(N)nc2ccc(C(=C(Cl)Cl)c3ccccc3)cc21 | 187 to 188
CC(C)(C)c1cc(OCc2ccc(C#N)cc2)cc(C(C)(C)C)c1 | 118 to 121
CCOC(=O)c1ncn(-c2ccc(Cl)c(Cl)c2)c1C | 163 to 164
Nc1ncc(Oc2ccc(Cl)cc2)c(N2CCN(CCO)CC2)n1 | 121 to 123
CC(C)(C)C1=NC=C2C=CC(=O)NC3=C2N1CC3 | 246 to 248

Structure (SMILES) | melting point [°C]
COCc1cc(O)c2nc(C)n(C)c2c1 | 219 to 220
C=C=COc1ccc2cc3ccccc3cc2c1 | 90.3 to 95.6
COC(=O)c1ccc(F)c2c1CC(N(CCCc1c[nH]c3ccc(F)cc13)C1CCC1)CO2 (stereo not drawn) | 110
CCOc1nc(-c2cccc(Cl)c2)c2cc(C(O)(c3ccc(I)cc3)c3cncn3C)ccc2n1 (stereo not drawn) | 135
COc1cnccc1CCCOc1cccnc1Oc1ccccc1 | 101 to 102
NCc1ccc(C2CCN(c3cc4c(cc3F)c(=O)c(C(=O)O)cn4C3CC3)C2)cc1 (stereo not drawn) | 268 to 272
CCC(Oc1ccc(C(C)(C)CC)cc1C(C)(C)CC)C(=O)Nc1ccc(Cl)c(NC(=O)C(C(=O)C(C)(C)C)N2C(=O)NC(=C(C)C)C2=O)c1 (stereo not drawn) | 178 to 179
CCOC(=O)OC1=C(c2ccccc2)C(CCC(=O)O)OC1=O (stereo not drawn) | 139 to 141
COc1cc(F)c(CNCCc2ccc(O)cc2)cc1O | 160 to 162
N#Cc1ccc(-c2cn(-c3ccc(I)cc3)c(SCc3ccncc3)n2)cc1 | 155 to 162
CC(=O)OCC1OC(n2cnc3c(NCC(c4ccccc4)c4ccccc4)ncnc32)C(OC(C)=O)C1OC(C)=O (stereo not drawn) | 75 to 80
Cc1ccc2nc(SCCN(C(C)C)C(C)C)[nH]c2c1 | 109 to 110
CC(=O)SCC(Cc1ccc(N(C)C)cc1)C(=O)Nc1cccc(C(=O)O)c1 (stereo not drawn) | 71 to 73
CNc1nc(C2(S(C)=O)C=CC=C(c3ccccc3)C2)c2cc(OC)c(OC)cc2n1 (stereo not drawn) | 163 to 165
CN1CCOc2cc([N+](=O)[O-])ccc2C1=O | 130 to 132
CS(=O)c1nnc(-c2ccc3ncn(-c4ccc(OC(F)(F)F)cc4)c3c2)o1 (stereo not drawn) | 152 to 153
COc1ccc(C2CCCN(C(=O)C(F)(F)F)C2)cc1NC(=O)NOCc1ccccc1 (stereo not drawn) | 134
CCN(CC)C(=O)CCc1c[nH]c2ccc(Br)cc12 | 128
CCCCc1nc(C(=O)O)c(C(=O)O)n1Cc1ccc(I)cc1 | 98 to 99
CN(C(=O)OCc1ccccc1)[C@@H](CC(N)=O)C(=O)N[C@@H](Cc1ccccc1)[C@H](O)C(=O)N1CCC[C@H]1C(=O)NC(C)(C)C | 100 to 103
COC(=O)c1ccccc1C=Nc1cc(C)ccc1O | 82 to 83
CCc1nc2c([nH]1)C(=O)N(C)CN2c1ccc(Cl)cc1Cl | 200 to 201
Cc1cccc(C)c1N1CC(C)N(c2c(C)cccc2C)C1=NC(=O)OCc1ccccc1 (stereo not drawn) | 74 to 75
COc1cccc2c(CCC3CC(=O)CCC3=O)cccc12 (stereo not drawn) | 94 to 100
C#CCN(Cc1cc2c(=O)[nH]c(CO)nc2cc1Cl)c1ccc(C(=O)OC(C)(C)C)cc1 | 185 to 187

Structure (SMILES) | melting point [°C]
COC(=O)C1=CCCn2c(=O)c3ccccc3c(=O)n21 | 156 to 157
Cc1cc(Cl)ccc1Oc1cccc(-c2ncccn2)n1 | 105
CC[C@H](C)[C@H](NC(=O)O[C@@H](CC(C)C)C(=O)OCc1ccccc1)C(=O)NC1CCCCC1 | 98 to 100
Cc1cc(Br)c2nc(Cl)ccc2c1 | 107 to 108
CCOC(=O)c1nnn(O)n1 | 75 to 78
CCN(CC)C(=CC(=O)OC)n1c(=O)n2nc(C(=O)OC)c(N(CC)CC)c2c2ccccc21 | 178
CN(C)C=NS(=O)(=O)c1cc2cnc(CO)cc2o1 | 161 to 163
Cc1cc(O)ccc1C(=O)N1CCN(C)CC1 | 167 to 168
CNC(=O)[C@H]1CN(c2ccc3c(c2)oc(=O)n3C(C)C)C(=O)O1 | 216 to 218
Cc1cc(SC2=C(O)CC(CCC3CCCO3)(C(C)C)OC2=O)c(C(C)(C)C)cc1CO (stereo not drawn) | 57 to 59
N#CCC(=O)Cc1cccc(C(F)(F)F)c1 | 82 to 83
Cc1c(-c2ccc(O)cc2)n(Cc2ccc(OCCN3C[C@@H]4CC[C@H]3C4)cc2)c2ccc(O)cc12 | 125 to 130
CN(C)CCNC(=O)c1cccc([N+](=O)[O-])c1 | 89 to 90
CC1CN=C(c2cccs2)NO1 (stereo not drawn) | 70 to 72
N#CC(=Cc1cc(F)ccc1[N+](=O)[O-])C(N)=O | 162 to 166
CCCCCCCCCCCC1=NCCN1CCOCCO | 58 to 60
N#Cc1ccc(N(Cc2ccc(O)c(Cl)c2)n2cnnc2)cc1-c1cc2ccccc2o1 | 196 to 197
CCOC(=O)C(C#N)=CNc1cccc(I)c1 | 140 to 141
CCN1C(=O)N(c2cccc(C#N)c2C(F)(F)F)C(=O)C1(C)COC(=O)C(C)C (stereo not drawn) | 85
Cc1[nH]cnc1CSCCSC#N | 101 to 103
O=C(CN1CCNCC1C(=O)CCCCCNO)Nc1nc2ccccc2s1 (stereo not drawn) | 150 to 152
Cc1ccsc1NC(=O)NCC(=O)N(CC(=O)N(C)c1ccccc1)c1ccccc1 | 172
CCCCc1ccc(CCCCS(=O)(=O)Cc2cccc(/C=C/c3cccc(NC(=O)CC(CC)(CC)C(=O)O)c3)n2)cc1 | 155 to 157
